For orientation: Ki means a dissociation constant, usually derived from enzyme kinetics or from competition with a known ligand.

This experiment has as its target Carbonic anhydrase 9 (Homo sapiens, UniProt Q16790).
As for `NS(=O)(=O)c1nnc(NC(=O)CCS)s1`, the Ki is 3.6 nM.
The same measure for `NS(=O)(=O)c1ccc(CCNC(=O)CCSSCCC(=O)NCCc2ccc(S(N)(=O)=O)cc2)cc1`: 71 nM; for `Cn1nc(S(N)(=O)=O)s/c1=N/C(=O)CCSSCCC(=O)/N=c1/sc(S(N)(=O)=O)nn1C`: 9.3 nM.

The values are drawn from ChEMBL document CHEMBL1149486, “Carbonic anhydrase inhibitors: Hypoxia-activatable sulfonamides incorporating disulfide bonds that target the tumor-associated isoform IX” (J Med Chem, 2006).
